Assay results reported in patent publication US6875768B1, “Phthalamide derivatives, intermediates in the production thereof, and agricultural/horticultural insecticides and method for using the same” (Nihon Nohyako Co., Ltd., priority 1999, dated 2005).

Legend:
[1] = tested on: Common cutworm (Spodoptera litura); type: in vivo; conditions: 500 ppm; cabbage leaf immersed about 30 seconds; second-instar larvae; eight days after the inoculation; 25° C.
Excerpt: Insecticidal Effect on Common cutworm (Spodoptera litura)

[2] = tested on: rice leafroller (Cnaphalocrosis medinalis); conditions: 500 ppm; rice lamina immersed about 30 seconds; third-instar larvae; four days after the inoculation; 25° C., humidity 70%
Procedure: Insecticidal effect on rice leafroller (Cnaphalocrosis medinalis)
After air-dryness, the lamina was placed in a plastic Petri dish with a diameter of 9 cm whose bottom had been covered with a wetted filter paper. The lamina was inoculated with third-instar larvae of rice leafroller, after which the dish was allowed to stand in a room thermostatted at 25° C. and having a humidity of 70%. Four days after the inoculation, the dead and alive were counted and the insecticidal effect was judged according to the criterion shown in Test Example 1. The test was carried out with triplicate groups of 10 insects.

[3] = tested on: diamond back moth (Plutella xylostella); type: in vivo; conditions: 1,000 ppm; Chinese cabbage seedling with eggs immersed about 30 seconds; counted six days after the immersion; 25° C.
Excerpt: Insecticidal effect on diamond back moth (Plutella xylostella)
Adult diamond back moths were released and allowed to oviposit on a Chinese cabbage seedling. […] Six days after the immersion, the hatched insects were counted. […] [formula] Criterion • A - - - Mortality 100% • B - - - Mortality 99-90% • C - - - Mortality 89-80% • D - - - Mortality 79-50%

Measured: insecticidal effect (activity ranking by mortality)

Cc1cc(C(F)(C(F)(F)F)C(F)(F)F)ncc1NC(=O)c1cccc(I)c1C(=O)NC(C)C [Q27-137]
B or higher: all assays above

CC(C)CSc1ccncc1NC(=O)c1cccc(Cl)c1C(=O)NC(C)C [Q27-32]
B or higher: all assays above

CCN(CC)C(=O)c1c(I)cccc1C(=O)Nc1ccc(C(F)(F)C(F)(F)C(F)(F)F)nc1 [Q27-131]
B or higher: all assays above

CC(C)(C)NC(=O)c1c(I)cccc1C(=O)Nc1ccc(C(F)(F)C(F)(F)C(F)(F)F)nc1 [Q27-141]
B or higher: all assays above

CSCC(C)NC(=O)c1c(I)cccc1C(=O)Nc1cnc(C(F)(C(F)(F)F)C(F)(F)F)cc1C (stereo not drawn) [Q27-144, N^1-(4-methyl-2-heptafluoroisopropyl-pyridin-5-yl)-N^2-(1-methyl-2-methylthioethyl),-3-iodophthalamide]
B or higher: all assays above

CCN(CC)C(=O)c1c(I)cccc1C(=O)Nc1ccc(Br)cn1 [Q26-33]
B or higher: all assays above

Cc1nc(C(F)(C(F)(F)F)C(F)(F)F)ccc1NC(=O)c1cccc(I)c1C(=O)NC(C)(C)C [Q27-143]
B or higher: all assays above

CC(C)NC(=O)c1c(I)cccc1C(=O)Nc1ccc(C(F)(F)C(F)(F)C(F)(F)F)nc1 [Q27-135]
B or higher: all assays above

CC(C)NC(=O)c1c(C(=O)Nc2cccnc2)cccc1[N+](=O)[O-] [Q27-164]
B or higher: all assays above

CC(C)NC(=O)c1ccccc1C(=O)Nc1ncc(C(F)(F)F)cc1Cl [Q26-1]
B or higher: all assays above

CCN(CC)C(=O)c1c(I)cccc1C(=O)Nc1ncc(C(F)(F)C(F)(F)C(F)(F)F)cc1C [Q26-30]
B or higher: all assays above

CC(C)CSc1ccc(NC(=O)c2c(Cl)cccc2C(=O)NC(C)C)cn1 [Q27-127]
B or higher: all assays above

Cc1cc(Oc2ccc(Br)cc2)ncc1NC(=O)c1cccc(Cl)c1C(=O)NC(C)C [Q27-98]
B or higher: all assays above

CCN(CC)C(=O)c1c(I)cccc1C(=O)Nc1ccc(Oc2ccc(Br)cc2)nc1 [Q27-132]
B or higher: all assays above

Cc1cc(Cl)ncc1NC(=O)c1c(Cl)cccc1C(=O)NC(C)C [Q27-128]
B or higher: all assays above

CC(C)(C)NC(=O)c1c(I)cccc1C(=O)Nc1ccc(C(F)(F)C(F)(F)F)nc1 [Q27-140]
B or higher: all assays above

CC(C)(C)NC(=O)c1c(I)cccc1C(=O)Nc1ccc(C(F)(C(F)(F)F)C(F)(F)F)nc1 [Q27-139]
B or higher: all assays above

CC(C)NC(=O)c1cccc(Cl)c1C(=O)Nc1ccc(Oc2ccc(Br)cc2)nc1 [Q27-124]
B or higher: all assays above

CCN(CC)C(=O)c1c(I)cccc1C(=O)Nc1ncc(C(F)(F)C(F)(F)F)cc1C [Q26-29]
B or higher: all assays above
